Data from patent publication US10029984B2, “Mono- or di-substituted indole derivatives as dengue viral replication inhibitors” (Janssen Pharmaceuticals, Inc., priority 2015, dated 2018).

Tests used:
[1] = test system: DENV-2 16681 strain; test: DENV-2 antiviral assay (eGFP-labeled virus in Vero cells); type: cell-based, Dengue virus; settings: DENV-2 16681 eGFP, MOI 0.5, 3 days
Protocol: The antiviral activity of all the compounds of the invention was tested against DENV-2 16681 strain which was labeled with enhanced green fluorescent protein (eGPF; Table 1). The culture medium consists of minimal essential medium supplemented with 2% of heat-inactivated fetal calf serum, 0.04% gentamycin (50 mg/mL) and 2 mM of L-glutamine. Vero cells, obtained from ECACC, were suspended in culture medium and 25 μL was added to 384-well plates (2500 cells/well), which already contain the antiviral compounds. Typically, these plates contain a 4-fold serial dilution of 9 dilution steps of the test compound at 200 times the final concentration in 100% DMSO (200 nL). In addition, each compound concentration is tested in quadruplicate (final concentration range: 25 μM-0.00038 μM). Finally, each plate contains wells which are assigned as virus controls (containing cells and virus in the absence of compound), cell controls (containing cells in the absence of virus and compound) and medium controls (containing medium in the absence of cells, virus and compounds). To the wells assigned as medium control, 25 μL of culture medium was added instead of Vero cells. Once the cells were added to the plates, the plates were incubated for 30 minutes at room temperature to allow the cells to distribute evenly within the wells. Next, the plates were incubated in a fully humidified incubator (37° C., 5% CO2) until the next day. Then, DENV-2 strain 16681, labeled with eGFP, was added at a multiplicity of infection (MOI) of 0.5. Therefore, 15 μL of virus suspension was added to all the wells containing test compound and to the wells assigned as virus control. In parallel, 15 μL of culture medium was added to the medium and cell controls. Next, the plates were incubated for 3 days in a fully humidified incubator (37° C., 5% CO2). At the day of the read out, the eGFP fluorescence was measured using an automated fluorescence microscope at 488 nm (blue laser). Using an in-house LIMS system, inhibition dose response curves for each compound were calculated and the half maximal effective concentration (EC50) was determined. Therefore, the percent inhibition (I) for every test concentration is calculated using the following formula: I=100*(ST−SCC)/(SVC−SCC); ST, SCC and SVC are the amount of eGFP signal in the test compound, cell control and virus control wells, respectively. The EC50 represents the concentration of a compound at which the virus replication is inhibited with 50%, as measured by a 50% reduction of the eGFP fluorescent intensity compared to the virus control. The EC50 is calculated using linear interpolation.

[2] = test system: Vero cells; test: in vitro; type: cell-based; settings: African green monkey
Protocol: (§1) In parallel, the toxicity of the compounds was assessed on the same plates. Once the read-out for the eGFP signal was done, 10 μL of resazurin, a cell viability stain, was added to all wells of the 384-well plates. The resazurin assay is based on the reduction of the blue resazurin by NADH, produced by the cells, into the highly fluorescent product, resorufin. The formation of pink fluorescent resorufin is directly related to the number of viable cells in the well. The plates were incubated for an additional 5 hours in a fully humidified incubator (37° C., 5% CO2). Next, the plates were measured on an Infinite reader (Tecan) using an excitation wavelength of 530 nm. The half maximal cytotoxic concentration (CC50) was also determined, defined as the concentration required to reduce the resazurin conversion by 50% compared to that of the cell control wells. Finally, the selectivity index (SI) was determined for the compounds, which was calculated as followed: SI=CC50/EC50.

[3] = test system: DENV-1 strain TC974#666; test: Tetravalent RT-qPCR assay Protocol A, serotype 1; type: cell-based; settings: Dengue virus, DENV1, 72 h; RT-qPCR serotype 1 TC974#666, Vero cells, day 3
Protocol: (§2) The antiviral activity of the compounds of the invention was tested against DENV-1 strain TC974#666 (NCPV; Table 6), DENV-2 strain 16681 (Table 7), DENV-3 strain H87 (NCPV; Table 8) and DENV-4 strains H241 (NCPV; Table 9) in a RT-qPCR assay. Therefore, Vero cells were infected with either DENV-1, or -2, or -3, or -4 in the presence or absence of test compounds. At day 3 post-infection, the cells were lysed and cell lysates were used to prepare cDNA of both a viral target (the 3′UTR of DENV; table 2) and a cellular reference gene (β-actin, table 2). Subsequently, a duplex real time PCR was performed on a Lightcycler480 instrument. The generated Cp value is inversely proportional to the amount of RNA expression of these targets. Inhibition of DENV replication by a test compound result in a shift of Cp's for the 3′UTR gene. On the other hand, if a test compound is toxic to the cells, a similar effect on β-actin expression will be observed. The comparative ΔΔCp method is used to calculate EC50, which is based on the relative gene expression of the target gene (3′UTR) normalized with the cellular housekeeping gene (β-actin).
(§3) The culture medium consisted of minimal essential medium supplemented with 2% of heat-inactivated fetal calf serum, 0.04% gentamycin (50 mg/mL) and 2 mM of L-glutamine. Vero cells, obtained from ECACC, were suspended in culture medium and 75 μL/well was added in 96-well plates (10000 cells/well), which already contain the antiviral compounds. Typically, these plates contain a 4-fold serial dilution of 9 dilution steps of the test compound at 200 times the final concentration in 100% DMSO (500 nL; final concentration range: 25 μM-0.00038 μM). In addition, each plate contains wells which are assigned as virus controls (containing cells and virus in the absence of compound) and cell controls (containing cells in the absence of virus and compound). Once the cells were added in the plates, the plates were incubated in a fully humidified incubator (37° C., 5% CO2) until the next day. Then, DENV-1 strain TC974#666 at an MOI of 0.6, DENV-2 strain 16681 at an MOI of 0.01, DENV-3 strain H87 at an MOI of 1.0 and DENV-4 strains H241 at an MOI of 0.2 and SG/06K2270DK1/2005 at an MOI of 0.16, were added. Therefore, 25 μL of virus suspension was added to all the wells containing test compound and to the wells assigned as virus control. In parallel, 25 μL of culture medium was added to the cell controls. Next, the plates were incubated for 3 days in a fully humidified incubator (37° C., 5% CO2). After 3 days, the supernatant was removed from the wells and the cells were washed twice with ice-cold PBS (˜100 μL). The cell pellets within the 96-well plates were stored at −80° C. for at least 1 day. Next, RNA was extracted using the Cells-to-CT™ lysis kit, according to the manufacture's guideline (Applied Biosystems). The cell lysates can be stored at −80° C. or immediately used in the reverse transcription step.
(§4) In preparation of the reverse transcription step, mix A (table 3A) was prepared and 7.57 μL/well was dispensed in a 96-well plate. After addition of 5 μL of the cell lysates, a five minute denaturation step at 75° C. was performed (table 3B). Afterwards, 7.43 μL of mix B was added (table 3C) and the reverse transcription step was initiated (table 3D) to generate cDNA.
(§5) Finally, a RT-qPCR mix was prepared, mix C (table 4A), dispensed in 96-well LightCycler qPCR plates to which 3 μL of cDNA was added and the qPCR was performed according to the conditions in table 4B on a LightCycler 480. Using the LightCycler software and an in-house LIMS system, dose response curves for each compound were calculated and the half maximal effective concentration (EC50) and the half maximal cytotoxic concentration (CC50) were determined.

[4] = test system: DENV-2 strain 16681; test: Tetravalent RT-qPCR assay Protocol A, serotype 2; type: cell-based; settings: Dengue virus, DENV2, 72 h; RT-qPCR serotype 2 16681, Vero cells, day 3
Protocol: as §2, §3, §4, §5

[5] = test system: DENV-3 strain H87; test: Tetravalent RT-qPCR assay Protocol A, serotype 3; type: cell-based; settings: Dengue virus, DENV3, 72 h; RT-qPCR serotype 3 H87, Vero cells, day 3
Protocol: as §2, §3, §4, §5

[6] = test system: DENV-4 strains H241; test: Tetravalent RT-qPCR assay Protocol A, serotype 4; type: cell-based; settings: Dengue virus, DENV4, 72 h; RT-qPCR serotype 4 H241, Vero cells, day 3
Protocol: as §2, §3, §4, §5

[7] = in vitro; type: cell-based; settings: African green monkey, CC50
Protocol: as §2, §3, §5

[8] = in vitro; type: cell-based; settings: African green monkey, CC50; remark: listed apart in the source
Protocol: as §1

Structure (SMILES) | EC50 ([1]; listed as 1A*) [nM] | CC50 [2] [nM] | EC50 [3] [nM] | EC50 [4] [nM] | EC50 [5] [nM] | EC50 [6] [nM] | CC50 at 3 days [7] [nM] | EC50 ([1]; listed as 3A*) [nM] | EC50 ([1]; listed as 4A*) [nM] | EC50 ([1]; listed as 5B*) [nM] | EC50 ([1]; listed as 6A*) [nM] | EC50 ([1]; listed as 7A*) [nM] | EC50 ([1]; listed as 8A*) [nM] | EC50 ([1]; listed as 12A*) [nM] | CC50 [8] [nM]
COc1cc(NC(C(=O)c2c[nH]c3cc(F)ccc23)c2ccc(F)cc2OC)cc(S(C)(=O)=O)c1 (single isomer, unassigned) [Enantiomer 1A, 1-(6-fluoro-1H-indol-3-yl)-2-(4-fluoro-2-methoxyphenyl)-2-((3-methoxy-5-(methylsulfonyl)phenyl)amino)ethanone] | 0.88 | 5900 | 5.18 | 0.83 | 49.6 | 165 | 3520 |  |  |  |  |  |  |  | 
COc1cc(NC(C(=O)c2c[nH]c3c(C)c(Cl)ccc23)c2ccc(F)cc2OC)cc(S(C)(=O)=O)c1 (single isomer, unassigned) [Enantiomer 3A, 1-(6-chloro-7-methyl-1H-indol-3-yl)-2-(4-fluoro-2-methoxyphenyl)-2-((3-methoxy-5-(methylsulfonyl)phenyl)amino)ethanone] |  | 4800 | 7.18 | 0.285 | 58.6 | 121 | 3910 | 0.3 |  |  |  |  |  |  | 
COc1cc(NC(C(=O)c2c[nH]c3cc(Cl)ccc23)c2ccc(F)cc2OC)cc(S(C)(=O)=O)c1 (single isomer, unassigned) [Enantiomer 4A, 1-(6-chloro-1H-indol-3-yl)-2-(4-fluoro-2-methoxyphenyl)-2-((3-methoxy-5-(methylsulfonyl)phenyl)amino)ethanone] |  | 4400 | 4.22 | 0.377 | 55.3 | 131 | 3590 |  | 0.5 |  |  |  |  |  | 
COc1cc(NC(C(=O)c2c[nH]c3cc(OC)ccc23)c2ccc(F)cc2OC)cc(S(C)(=O)=O)c1 (single isomer, unassigned) [Enantiomer 5B, 2-(4-fluoro-2-methoxyphenyl)-1-(6-methoxy-1H-indol-3-yl)-2-((3-methoxy-5-(methylsulfonyl)phenyl)amino)ethanone] |  | > 13000 | 8.89 | 1.23 | 100 | 186 |  |  |  | 1 |  |  |  |  | 
COc1cc(NC(C(=O)c2c[nH]c3c(F)cc(C)cc23)c2ccc(F)cc2OC)cc(S(C)(=O)=O)c1 (single isomer, unassigned) [Enantiomer 6A, 2-(4-fluoro-2-methoxyphenyl)-1-(7-fluoro-5-methyl-1H-indol-3-yl)-2-((3-methoxy-5-(methylsulfonyl)phenyl)amino)ethanone] |  | 5000 | 9.7 | 3.48 | 123 | 239 | 4610 |  |  |  | 2.7 |  |  |  | 
COc1cc(NC(C(=O)c2c[nH]c3cc(F)c(F)cc23)c2ccc(F)cc2OC)cc(S(C)(=O)=O)c1 (single isomer, unassigned) [Enantiomer 7A, 1-(5,6-difluoro-1H-indol-3-yl)-2-(4-fluoro-2-methoxyphenyl)-2-((3-methoxy-5-(methylsulfonyl)phenyl)amino)ethanone] |  | 4400 | 3.7 | 0.525 | 61.6 | 142 | 3870 |  |  |  |  | 0.76 |  |  | 
COc1cc(NC(C(=O)c2c[nH]c3c(C)cc(F)cc23)c2ccc(F)cc2OC)cc(S(C)(=O)=O)c1 (single isomer, unassigned) [Enantiomer 8A, 2-(4-fluoro-2-methoxyphenyl)-1-(5-fluoro-7-methyl-1H-indol-3-yl)-2-((3-methoxy-5-(methylsulfonyl)phenyl)amino)ethanone] |  | 5100 | 6.83 | 1.27 | 82.1 | 248 | 4400 |  |  |  |  |  | 1 |  | 
COc1cc(NC(C(=O)c2c[nH]c3c(Cl)c(OC)ccc23)c2ccc(F)cc2OC)cc(S(C)(=O)=O)c1 (single isomer, unassigned) [Enantiomer 12A, 1-(7-chloro-6-methoxy-1H-indol-3-yl)-2-(4-fluoro-2-methoxyphenyl)-2-((3-methoxy-5-(methylsulfonyl)phenyl)amino)ethanone] |  |  | 14 | 0.25 | 73.8 | 261 |  |  |  |  |  |  |  | 0.42 | > 25000
